Data reported in ChEMBL document CHEMBL1201862, “PubChem BioAssay data set” (2004).
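How tested: cells in 96-well plates exposed to compound for 48 hours at five concentrations. GI50 marks 50% less growth.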 Active and inactive are the calls of the source. Cut-off read from the data, not from the text of the source: active = GI50 up to about 1.1 µM and inactive = higher.

Columns and labels:
Experiment in all cases: DTP human tumour cell line panel, 48 h
Hs-578T = test system: Hs-578T
T47D = test system: T47D
TK-10 = test system: TK-10
MDA-MB-435 = test system: MDA-MB-435
COLO 205 = test system: COLO 205
M14 = test system: M14
EKVX = test system: EKVX
NCI-H23 = test system: NCI-H23
Malme-3M = test system: Malme-3M
MCF7 = test system: MCF7
HCC 2998 = test system: HCC 2998
ACHN = test system: ACHN
SNB-19 = test system: SNB-19
A498 = test system: A498
DU-145 = test system: DU-145
MDA-N = test system: MDA-N
PC-3 = test system: PC-3
MOLT-4 = test system: MOLT-4
KM12 = test system: KM12
UO-31 = test system: UO-31
BT-549 = test system: BT-549
OVCAR-8 = test system: OVCAR-8
OVCAR-5 = test system: OVCAR-5
HL-60 = test system: HL-60
786-0 = test system: 786-0
CAKI-1 = test system: CAKI-1
NCI-H460 = test system: NCI-H460
HOP-62 = test system: HOP-62
HOP-92 = test system: HOP-92
SF-268 = test system: SF-268
NCI-H522 = test system: NCI-H522
SR = test system: SR
SK-MEL-5 = test system: SK-MEL-5
SF-539 = test system: SF-539
RXF 393 = test system: RXF 393
OVCAR-4 = test system: OVCAR-4
CCRF-CEM = test system: CCRF-CEM
HCT-116 = test system: HCT-116
HCT-15 = test system: HCT-15
K562 = test system: K562
HT-29 = test system: HT-29
UACC-62 = test system: UACC-62
NCI/ADR-RES = test system: NCI/ADR-RES
SF-295 = test system: SF-295
SW-620 = test system: SW-620
NCI-H226 = test system: NCI-H226
SK-MEL-2 = test system: SK-MEL-2
U-251 = test system: U-251
OVCAR-3 = test system: OVCAR-3
MDA-MB-231 = test system: MDA-MB-231
LOX IMVI = test system: LOX IMVI
RPMI-8226 = test system: RPMI-8226
A549 = test system: A549
SN12C = test system: SN12C
IGROV-1 = test system: IGROV-1
SK-OV-3 = test system: SK-OV-3
UACC-257 = test system: UACC-257
SNB-75 = test system: SNB-75
SK-MEL-28 = test system: SK-MEL-28

Measured: GI50

O=C(NCCCl)N(O)C(=O)Nc1ccccc1
> 100 µM: HCT-15
inactive: Hs-578T > 100 µM | T47D > 100 µM | TK-10 > 100 µM | MDA-MB-435 > 100 µM | COLO 205 > 100 µM | M14 > 100 µM | EKVX > 100 µM | NCI-H23 > 100 µM | Malme-3M > 100 µM | MCF7 > 100 µM | HCC 2998 > 100 µM | ACHN > 100 µM | SNB-19 > 100 µM | A498 > 100 µM | DU-145 35.4 µM | MDA-N > 100 µM | PC-3 > 100 µM | MOLT-4 > 100 µM | KM12 > 100 µM | UO-31 > 100 µM | BT-549 > 100 µM | OVCAR-8 > 100 µM | OVCAR-5 > 100 µM | HL-60 > 100 µM | 786-0 > 100 µM | CAKI-1 > 100 µM | NCI-H460 > 100 µM | HOP-62 > 100 µM | HOP-92 > 100 µM | SF-268 > 100 µM | NCI-H522 > 100 µM | SR > 100 µM | SK-MEL-5 98.2 µM | SF-539 > 100 µM | RXF 393 > 100 µM | OVCAR-4 > 100 µM | CCRF-CEM > 100 µM | HCT-116 > 100 µM | K562 > 100 µM | HT-29 > 100 µM | UACC-62 > 100 µM | NCI/ADR-RES 74.6 µM | SF-295 > 100 µM | SW-620 > 100 µM | NCI-H226 > 100 µM | SK-MEL-2 > 100 µM | U-251 > 100 µM | OVCAR-3 > 100 µM | MDA-MB-231 67.8 µM | LOX IMVI > 100 µM | RPMI-8226 > 100 µM | A549 > 100 µM | SN12C > 100 µM | IGROV-1 > 100 µM | SK-OV-3 > 100 µM | UACC-257 > 100 µM | SNB-75 > 100 µM

Cn1ccc(C(=O)NCCN(CCNC(=O)c2ccn(C)c(=O)c2O)CCNC(=O)c2ccn(C)c(=O)c2O)c(O)c1=O
> 100 µM: HCT-15
inactive: Hs-578T > 100 µM | T47D > 100 µM | TK-10 > 100 µM | MDA-MB-435 > 100 µM | COLO 205 > 100 µM | M14 > 100 µM | NCI-H23 > 100 µM | Malme-3M > 100 µM | MCF7 > 100 µM | HCC 2998 > 100 µM | ACHN 74.6 µM | SNB-19 > 100 µM | A498 > 100 µM | DU-145 > 100 µM | MDA-N > 100 µM | PC-3 > 100 µM | KM12 > 100 µM | UO-31 > 100 µM | BT-549 > 100 µM | OVCAR-8 > 100 µM | OVCAR-5 29.9 µM | HL-60 > 100 µM | CAKI-1 > 100 µM | NCI-H460 > 100 µM | HOP-62 > 100 µM | HOP-92 > 100 µM | SK-MEL-28 > 100 µM | SF-268 > 100 µM | NCI-H522 > 100 µM | SR > 100 µM | SK-MEL-5 > 100 µM | SF-539 > 100 µM | RXF 393 > 100 µM | OVCAR-4 > 100 µM | CCRF-CEM > 100 µM | K562 > 100 µM | HT-29 > 100 µM | UACC-62 > 100 µM | NCI/ADR-RES > 100 µM | SF-295 > 100 µM | SW-620 > 100 µM | NCI-H226 > 100 µM | SK-MEL-2 > 100 µM | U-251 > 100 µM | OVCAR-3 > 100 µM | MDA-MB-231 > 100 µM | RPMI-8226 > 100 µM | A549 > 100 µM | SN12C > 100 µM | IGROV-1 > 100 µM | SK-OV-3 > 100 µM | UACC-257 > 100 µM | SNB-75 > 100 µM
